# Test results published in PubChem BioAssay AID2060896 (Molecular Pharmacology Branch, DTP, NCI, 2025).
# Tested on: 941728-121-R-J1-PDC complex spheroid viability
# Experiment: Anticancer human tumor 941728-121-R-J1-PDC patient-derived lung adenocarcinoma cell line growth inhibition [RAS]
# Settings: for IC50: curve of first compound; for viability, T/C: stronger effect = lower value
# Outline: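 Agents were tested in combination matrices in half-log decrements from a top concentration at or near clinical Cmax (10 microM if undetermined). Targets were multi-cell spheroids of tumour lines plus HUVEC and MSC stromal cells.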
# [1] = second compound 0.000949 µM, first compound 0.00316 µM
# [2] = second compound 0.000949 µM, first compound 0.01 µM
# [3] = second compound 0.000949 µM, first compound 0.0316 µM
# [4] = second compound 0.000949 µM, first compound 0.1 µM
# [5] = second compound 0.003 µM, first compound 0.00316 µM
# [6] = second compound 0.003 µM, first compound 0.01 µM
# [7] = second compound 0.003 µM, first compound 0.0316 µM
# [8] = second compound 0.003 µM, first compound 0.1 µM
# [9] = second compound 0.00949 µM, first compound 0.00316 µM
# [10] = second compound 0.00949 µM, first compound 0.01 µM
# [11] = second compound 0.00949 µM, first compound 0.0316 µM
# [12] = second compound 0.00949 µM, first compound 0.1 µM
# [13] = second compound 0.03 µM, first compound 0.00316 µM
# [14] = second compound 0.03 µM, first compound 0.01 µM
# [15] = second compound 0.03 µM, first compound 0.0316 µM
# [16] = second compound 0.03 µM, first compound 0.1 µM
# [17] = second compound 0.0949 µM, first compound 0.00316 µM
# [18] = second compound 0.0949 µM, first compound 0.01 µM
# [19] = second compound 0.0949 µM, first compound 0.0316 µM
# [20] = second compound 0.0949 µM, first compound 0.1 µM
# [21] = second compound 0.3 µM, first compound 0.00316 µM
# [22] = second compound 0.3 µM, first compound 0.01 µM
# [23] = second compound 0.3 µM, first compound 0.0316 µM
# [24] = second compound 0.3 µM, first compound 0.1 µM
# [25] = second compound 0.000949 µM, first compound 0.316 µM
# [26] = second compound 0.000949 µM, first compound 1 µM
# [27] = second compound 0.003 µM, first compound 0.316 µM
# [28] = second compound 0.003 µM, first compound 1 µM
# [29] = second compound 0.00949 µM, first compound 0.316 µM
# [30] = second compound 0.00949 µM, first compound 1 µM
# [31] = second compound 0.03 µM, first compound 0.316 µM
# [32] = second compound 0.03 µM, first compound 1 µM
# [33] = second compound 0.0949 µM, first compound 0.316 µM
# [34] = second compound 0.0949 µM, first compound 1 µM
# [35] = second compound 0.3 µM, first compound 0.316 µM
# [36] = second compound 0.3 µM, first compound 1 µM
# 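Also: spheroids exposed to compounds for 7 days before readout.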
# 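For viability, T/C in this document: 100% = DMSO vehicle control viability.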
smiles,measurement,setting,value
CC(C)n1nc(-c2ccc3oc(N)nc3c2)c2c(N)ncnc21 + CCn1c(-c2cccnc2C(C)OC)c2c3cc(ccc31)N1CCOC(CC(NC(=O)C(C(C)C)N(C)C(=O)C3(F)CCN(C(=O)C#CC(C)(C)N(C)C)CC3)C(=O)N3CCCC(N3)C(=O)OCC(C)(C)C2)C1,IC50,second compound 0.000949 µM,< 0.316 nM
same,IC50,second compound 0.003 µM,< 0.316 nM
same,IC50,second compound 0.00949 µM,< 0.316 nM
same,IC50,second compound 0.03 µM,< 0.316 nM
same,IC50,second compound 0.0949 µM,< 0.316 nM
same,IC50,second compound 0.3 µM,< 0.316 nM
same,"viability, T/C","second compound 0.000949 µM, first compound 0.000316 µM",21.4%
same,"viability, T/C","second compound 0.000949 µM, first compound 0.001 µM",19.7%
same,"viability, T/C",[1],12.9%
same,"viability, T/C",[2],15.4%
same,"viability, T/C",[3],11.6%
same,"viability, T/C",[4],6.3%
same,"viability, T/C","second compound 0.003 µM, first compound 0.000316 µM",23.6%
same,"viability, T/C","second compound 0.003 µM, first compound 0.001 µM",19.4%
same,"viability, T/C",[5],14.5%
same,"viability, T/C",[6],15.6%
same,"viability, T/C",[7],9.94%
same,"viability, T/C",[8],7.46%
same,"viability, T/C","second compound 0.00949 µM, first compound 0.000316 µM",21%
same,"viability, T/C","second compound 0.00949 µM, first compound 0.001 µM",17.3%
same,"viability, T/C",[9],19.8%
same,"viability, T/C",[10],15.3%
same,"viability, T/C",[11],9.22%
same,"viability, T/C",[12],6.25%
same,"viability, T/C","second compound 0.03 µM, first compound 0.000316 µM",20.8%
same,"viability, T/C","second compound 0.03 µM, first compound 0.001 µM",19.7%
same,"viability, T/C",[13],16.8%
same,"viability, T/C",[14],14.8%
same,"viability, T/C",[15],8.83%
same,"viability, T/C",[16],8.55%
same,"viability, T/C","second compound 0.0949 µM, first compound 0.000316 µM",18.8%
same,"viability, T/C","second compound 0.0949 µM, first compound 0.001 µM",20.8%
same,"viability, T/C",[17],17.4%
same,"viability, T/C",[18],15.2%
same,"viability, T/C",[19],9.76%
same,"viability, T/C",[20],10.1%
same,"viability, T/C","second compound 0.3 µM, first compound 0.000316 µM",21.7%
same,"viability, T/C","second compound 0.3 µM, first compound 0.001 µM",18.9%
same,"viability, T/C",[21],18.9%
same,"viability, T/C",[22],15.9%
same,"viability, T/C",[23],10.5%
same,"viability, T/C",[24],10.8%
CCN1CCN(Cc2ccc(Nc3ncc(F)c(-c4cc(F)c5nc(C)n(C(C)C)c5c4)n3)nc2)CC1 + CCn1c(-c2cccnc2C(C)OC)c2c3cc(ccc31)N1CCOC(CC(NC(=O)C(C(C)C)N(C)C(=O)C3(F)CCN(C(=O)C#CC(C)(C)N(C)C)CC3)C(=O)N3CCCC(N3)C(=O)OCC(C)(C)C2)C1,IC50,second compound 0.000949 µM,< 3.16 nM
same,IC50,second compound 0.003 µM,< 3.16 nM
same,IC50,second compound 0.00949 µM,< 3.16 nM
same,IC50,second compound 0.03 µM,< 3.16 nM
same,IC50,second compound 0.0949 µM,< 3.16 nM
same,IC50,second compound 0.3 µM,< 3.16 nM
same,"viability, T/C",[1],22.2%
same,"viability, T/C",[2],23.4%
same,"viability, T/C",[3],16.8%
same,"viability, T/C",[4],16.1%
same,"viability, T/C",[25],16.6%
same,"viability, T/C",[26],12.2%
same,"viability, T/C",[5],22.9%
same,"viability, T/C",[6],19.3%
same,"viability, T/C",[7],17.4%
same,"viability, T/C",[8],19.3%
same,"viability, T/C",[27],17.3%
same,"viability, T/C",[28],11.3%
same,"viability, T/C",[9],21.3%
same,"viability, T/C",[10],21.9%
same,"viability, T/C",[11],19.8%
same,"viability, T/C",[12],17.7%
same,"viability, T/C",[29],15.8%
same,"viability, T/C",[30],12.9%
same,"viability, T/C",[13],24.5%
same,"viability, T/C",[14],21.8%
same,"viability, T/C",[15],18%
same,"viability, T/C",[16],19.2%
same,"viability, T/C",[31],13.6%
same,"viability, T/C",[32],17.5%
same,"viability, T/C",[17],21.9%
same,"viability, T/C",[18],23.3%
same,"viability, T/C",[19],19.8%
same,"viability, T/C",[20],16.3%
same,"viability, T/C",[33],11.7%
same,"viability, T/C",[34],15.8%
same,"viability, T/C",[21],21.2%
same,"viability, T/C",[22],21.9%
same,"viability, T/C",[23],21.3%
same,"viability, T/C",[24],16.3%
same,"viability, T/C",[35],16%
same,"viability, T/C",[36],17.9%
C[C@@H](NC(=O)c1ncnc(N)c1Cl)c1ncc(C(=O)Nc2cc(C(F)(F)F)c(Cl)cn2)s1 + CCn1c(-c2cccnc2C(C)OC)c2c3cc(ccc31)N1CCOC(CC(NC(=O)C(C(C)C)N(C)C(=O)C3(F)CCN(C(=O)C#CC(C)(C)N(C)C)CC3)C(=O)N3CCCC(N3)C(=O)OCC(C)(C)C2)C1,IC50,second compound 0.000949 µM,< 31.6 nM
same,IC50,second compound 0.003 µM,< 31.6 nM
same,IC50,second compound 0.00949 µM,< 31.6 nM
same,IC50,second compound 0.03 µM,< 31.6 nM
same,IC50,second compound 0.0949 µM,< 31.6 nM
same,IC50,second compound 0.3 µM,< 31.6 nM
same,"viability, T/C",[3],25.9%
same,"viability, T/C",[4],26.5%
same,"viability, T/C",[25],20.4%
same,"viability, T/C",[26],26.4%
same,"viability, T/C","second compound 0.000949 µM, first compound 3.16 µM",24.6%
same,"viability, T/C","second compound 0.000949 µM, first compound 10 µM",16.7%
same,"viability, T/C",[7],21.6%
same,"viability, T/C",[8],20.3%
same,"viability, T/C",[27],19.4%
same,"viability, T/C",[28],23.7%
same,"viability, T/C","second compound 0.003 µM, first compound 3.16 µM",23.5%
same,"viability, T/C","second compound 0.003 µM, first compound 10 µM",17.9%
same,"viability, T/C",[11],22.9%
same,"viability, T/C",[12],19.8%
same,"viability, T/C",[29],24.6%
same,"viability, T/C",[30],22.4%
same,"viability, T/C","second compound 0.00949 µM, first compound 3.16 µM",21%
same,"viability, T/C","second compound 0.00949 µM, first compound 10 µM",19.9%
same,"viability, T/C",[15],23.9%
same,"viability, T/C",[16],20.6%
same,"viability, T/C",[31],26.3%
same,"viability, T/C",[32],23.1%
same,"viability, T/C","second compound 0.03 µM, first compound 3.16 µM",17.4%
same,"viability, T/C","second compound 0.03 µM, first compound 10 µM",21.6%
same,"viability, T/C",[19],21.7%
same,"viability, T/C",[20],24%
same,"viability, T/C",[33],22.6%
same,"viability, T/C",[34],24.4%
same,"viability, T/C","second compound 0.0949 µM, first compound 3.16 µM",21.2%
same,"viability, T/C","second compound 0.0949 µM, first compound 10 µM",22.2%
same,"viability, T/C",[23],22.6%
same,"viability, T/C",[24],26%
same,"viability, T/C",[35],23.2%
same,"viability, T/C",[36],25.1%
same,"viability, T/C","second compound 0.3 µM, first compound 3.16 µM",21.9%
same,"viability, T/C","second compound 0.3 µM, first compound 10 µM",20.1%
